In data set [1] the test system is Micrococcus luteus BKM Ac-2230. Briefly: Antibacterial activity (MIC/MBC), serial dilutions in liquid MH medium. It is filed as cell-based. As to conditions: for MIC: 20 h, MH medium. The protocol:
(§1) The antibacterial activity of compounds was determined against Bacillus subtilis BKM B-501, Staphylococcus aureus 209P, Enterococcus faecalis BKM B-871, and Micrococcus luteus BKM Ac-2230 strains (acquired from the All-Russia Collection of Microorganisms at the Institute for Biochemistry and Physiology of Microorganisms, Russian Academy of Sciences). The main parameters characterizing the antibacterial activity are the minimal inhibitory concentration (MIC) and minimal bactericidal concentration (MBC). […] MBC is the least concentration that causes the death of all cells.
(§2) MIC was quantified by inhibiting culture growth in a liquid medium with serial dilutions of compounds using a modified procedure [Amsterdam, D., “Susceptibility Testing of Antimicrobials in Liquid Media,” in Antibiotics in Laboratory Medicine, Ed. by Lorian, V., 4th ed., Baltimore: Williams and Wilkins, 1996, pp. 52-111].
(§3) Bacteria were cultured and tests were carried out on an MH liquid medium (Mueller-Hinton medium: a dry extract of beef broth, 4 g/L; starch, 1.5 g/L; casein hydrolyzate, 17.5 g/L; Sigma-Fluka Catalog No. 70192) at 37° C., 100% humidity, and under stirring. Cultures (4th through 7th receeding post-thawing) in the exponential growth phase were used for tests.
(§4) Therefore, a correction for absorption was applied in estimating the optical density of bacterial suspensions for each compound with account for its concentration in the well.
(§5) The protocol for experimental antibacterial activity determination for tested compounds was as follows. A cryovial with the test strain culture (Bacillus subtilis BKIVI B-501, Staphylococcus aureus 209P, Enterococcus faecalis BKM B-871, or Micrococcus luteus BKIVI Ac-2230) in a medium with 7% DMSO stored in liquid nitrogen, was rapidly defrosted, and 1.5 mL of the fresh MH medium was inoculated with 100 μL of the cell suspension. Cells were grown for one day at 37° C. and stirred on an orbital shaker at 150 rpm. The morphologic features of the strain and the absence of contamination with foreign bacteria were verified by: (a) inoculation on an agarized (15 g/L agar) MH medium and observation of the shape and color of the grown colonies and (b) examination of characteristic morphologic features under a microscope (Mikmed-2, LOMO, Russia) equipped with a 40× objective lens. Further bacteria were cultured in 1 mL of the liquid MH medium at 37° C. under stirring. The cells were reseeded every day. Cell cultures were used in tests starting with 3rd reseeding and ending with 6th one.
(§6) For testing, 5 μL of a bacterial suspension in the stationary growth phase was transferred to 1 mL of a sterile MH medium and incubated until the exponential growth phase was attained (3 to 5 h, 37° C., stirring at 150 rpm). To estimate the microorganisms concentration, the optical density (A) of the resulting bacterial culture was measured at a wavelength of 595 nm. The value of A=0.2 measured from a […] portion of the cell suspension in a 96-well plate, with a correction for the medium absorption applied, was set to correspond to 4×10^8 cells/mL for both strains used. Taking into account the cell concentration measurements, the suspension was diluted with the MH medium to a concentration of from 5×10^4 to 1×10^5 cells/mL and transferred to a sterile 96-well plate in an amount of 100 μL, per well. Then, the cells were added with tested compounds and twofold serial dilutions of these compounds in plate's wells were made.
(§7) The controls used were: 100 μL of an additive-free bacterial culture (four wells); a bacterial culture added with 1% DMSO or water in the same volume as in the wells with the maximal concentration of the tested compounds (four wells); and 100 μL of the sterile MH medium without bacteria and without tested compounds for control of occasional contamination in the plate (four wells).

In data set [2] the test system is Enterococcus faecalis BKM B-871. The data set is described as above. In kind it is cell-based. The note with it: for MIC: 20 h, MH medium. The protocol:
as §1, §2, §3, §4, §5, §6, §7

The subject of data set [3] is Staphylococcus aureus 209P. The description is as above. As to conditions: for MIC: 20 h, MH medium. In kind it is cell-based. The protocol: as §1, §2, §3, §4, §5, §6, §7
The subject of data set [4] is Bacillus subtilis BKM B-501. The description is as above. In kind it is cell-based. The note with it: for MIC: 20 h, MH medium. The protocol:
as §1, §2, §3, §4, §5, §6, §7

In a further data set the test system is human leukocytes. Briefly: Cytotoxic activity against human leukocytes. As to conditions: for toxic effect on human blood leukocytes (in words): concentrations of up to 1 mM, 3 h. The protocol: Total leukocytes were isolated from human blood by unforced sedimentation using freshly collected venous blood from a healthy donor.
Blood (10 mL) added with 10 units/mL heparin was exposed for 2.5 h in the dark at a temperature of 15 to 18° C. A light-colored liquid supernatant (4 mL) was collected over the layer of sedimenting erythrocytes, washed three times with balanced Hanks's salt solution, and resuspended in the RPMI-1640 medium (added with 8% fetal bovine serum, 2 mM L-glutamine, and 10 mM HEPES; hereinafter, the complete medium).
The concentrations of leukocytes and erythrocytes in the suspension were determined by counts in Goryachev's chamber, after which the suspension was adjusted to a leukocyte concentration of (1.0±0.1)×10^6 cells/mL with the complete medium.
To determine the cytotoxicity of the tested compounds for human leukocytes, the cell suspension was transferred to wells of sterile 96-well plates, tested compounds were added with serial twofold dilutions (the range of tested concentrations was from 3.2 to 100 μM for GrD and gramicidin S; from 8 to 500 μM for compound XIII; and from 8 to 1000 μM for compounds V, VI, VII, VIII, IX, X, XI, XIV, XV, XIX, and Hem), and the mixture was carefully stirred. The experiment was performed in two replicas.
As controls served cells added with an equivalent amount of the solvent in which tested compounds were prepared, namely: water for compounds VII and X; an aqueous solution of DMSO for compounds V, VI, VIII, and IX; and DMSO for GrD, gramicidin S, Hem, XI, XIII, XIV, XV, and XIX. An additional control was an additive-free leukocyte suspension.
Cells were incubated with tested compounds for 3 h (37° C., 5% CO2, 100% humidity). Leukocyte death values were quantified using fluorescence microscopy. Staining with propidium iodide (it permeates only into dead cells nuclei) and Hoechst 33342 (it stains all nuclei) was used to recognize dead and living cells. Cells were incubated for 15 min in plates with propidium iodide and Hoechst 33342 (37° C., 5% CO2), and then the plates were placed under a microscope for analysis.
The dead cell fraction was derived from the fluorescence images of cells obtained in the blue (Hoechst 33342) and red (propidium iodide) spectral ranges using an Axio Observer (Zeiss, Germany) fluorescence microscope equipped with a 10× objective lens (Plan-Neofluar 10×/0.3). The following sets of fluorescence filters were used. For propidium iodide: a 530/585-nm bandpass excitation filter, a 600-nm cut-off dichroic minor, and a 615-nm longpass barrier filter for analysis. For Hoechst 33342: a 359/372-nm bandpass excitation filter, a 395-nm cut-off dichroic mirror, and a 397-nm longpass barrier filter for analysis.
A digital camera recorded three types of cell images: (a) an image in the transmitted white light; (b) a blue fluorescence image obtained with UV excitation, and (c) a red fluorescence image obtained with green light excitation. At least four fields of view were photographed per well in various regions of a well.

These results are taken from patent publication US8906897B2, “Antimicrobial agents based on hemin derivatives” (Obschestvo S Ogranichennoi Otvetstvennostiyu …, priority 2009, dated 2014).

Bounds are passed on as bounds.

Regarding “6(7)-Mono(Arg-Gly-Asp)-Protohemin IX [Compound XI]”, the MBC (in general, the lowest tested concentration that kills the bacteria rather than only halting them) in data set [1] is 200 µM; in data set [2], “Not reached”; in data set [3] it was “Not reached”; in data set [4] it was 25 ± 7 µM. Besides, the MIC – broadly, the least concentration at which growth counts as inhibited – in data set [1] was found to be 50 µM; in data set [2], 100 µM; in data set [3] it was 12.5 µM; in data set [4] it was 12.5 ± 4 µM. In the data set on human leukocytes (3 h incubation), the “Death of leukocytes in the presence of 1 mM of compound” value (shortened to “Death of leukocytes”) was found to be 8.6 ± 0.4%. Further, in the data set with human leukocytes, the “toxic effect on human blood leukocytes (in words)” value is on record as “fully due to the toxic effect of the solvent”.
With `C=CC1=C(C)c2cc3[n-]c(cc4nc(cc5[n-]c(cc1n2)c(C)c5CCC(=O)NCCc1c[nH]cn1)C(CCC(=O)NCCc1c[nH]cn1)=C4C)c(C)c3C=C.[Cl-].[Fe+3]` [Compound XIX, 6,7-bis-Histaminyl-Protohemin IX], the minimal bactericidal concentration (MBC) in data set [1] is 25 µM; in data set [2] it was “Not reached”; in data set [3], “Not reached”; in data set [4], “Not reached”. Also, the MIC in data set [1] is 25 µM; in data set [2] it was 200 µM; in data set [3], 200 µM; in data set [4], 100 ± 25 µM. Also, in the data set on human leukocytes (3 h incubation), the “Death of leukocytes” value was determined as 13 ± 1%. For the same compound, in the data set on human leukocytes (3 h incubation), the “concentration at which a weak toxic effect on leukocytes appears” value was approximately 1000 µM.
As to `C=CC1=C(C)c2cc3[n-]c(cc4nc(cc5[n-]c(cc1n2)c(C)c5CCC(=O)NC(CO)CO)C(CCC(=O)NC(CO)CO)=C4C)c(C)c3C=C.[Cl-].[Fe+3]` [Compound XVI, Protohemin IX 6,7-bis-N-(1,3-Dihydroxypropan-2-yl)amide], the MBC in data set [1], in data set [2], in data set [3] and in data set [4] was more than 200 µM each time. Besides, the MIC in data set [1], in data set [2], in data set [3] and in data set [4] was more than 200 µM throughout.
As to `C=CC1=C(C)c2cc3[n-]c(cc4nc(cc5[n-]c(cc1n2)c(C)c5CCC(=O)NCC(O)CO)C(CCC(=O)NCC(O)CO)=C4C)c(C)c3C=C.[Cl-].[Fe+3]` (stereo not drawn) [Compound XVII, Protohemin IX 6,7-bis-N-(2,3-Dihydroxypropyl)amide], the MBC in data set [1], in data set [2], in data set [3] and in data set [4] was more than 200 µM in each case. Besides, the MIC in data set [1], in data set [2], in data set [3] and in data set [4] was more than 200 µM in each case.
For `C=CC1=C(C)c2cc3[n-]c(cc4nc(cc5[n-]c(cc1n2)c(C)c5CCC(=O)NCCC(=O)NCCc1c[nH]cn1)C(CCC(=O)NCCC(=O)NCCc1c[nH]cn1)=C4C)c(C)c3C=C.[Cl-].[Fe+3]` [IX], the MBC in data set [1] is 25 µM; in data set [2], >400^3 μM; in data set [3], 400 µM; in data set [4], 100 ± 25 µM. In addition, the MIC in data set [2] amounted to 200 µM; in data set [3], 100 µM; in data set [4] it was 50 ± 13 µM. The “Death of leukocytes” value in the data set on human leukocytes (3 h incubation) is given as 3.1 ± 0.3%. In addition, the “toxic effect on human blood leukocytes (in words)” value with human leukocytes is “did not cause the death”.
